The values below come from patent US11986659B2, “Modulation of neuronal NKCC1 as a therapeutic strategy for spasticity and related disorders” (Research Foundation of the City University of New York, priority 2018, dated 2024).

Test [1] has as its system animals with spasticity following SCI. The experiment in a line: Stretch-apparatus test of spasticity (muscle resistance, EMG) in mice with SCI after bumetanide injection. It counts as in vivo, CD-1 mice. The source says: (§1) Adult female CD-1 mice (n=120 weight, 27-37 g) were used for all of the animal studies performed. A total of 51 animals were used for the long-term stimulation studies that included four groups. Animals with SCI were randomly divided into three groups: a-tsDCS-treated group (n=16), a c-tsDCS-treated group (n=15), and a sham-treated group (n=10), and a non-injured control group (n=10). Subgroups of these animals were also used to study long-term changes in expression for KCC2, pKCC2, NKCC1, and pNKCC1. Injured animals with spasticity were used to test the immediate effect of tsDCS on rate-dependent depression (RDD) (n=6), while the relatively short-term effects of tsDCS on the expression of NKCC1 and pNKCC1 were studied in non-injured animals (n=10). Pharmacological studies involving bumetanide (NKCC1 blocker) were conducted with SCI animals (n=9) and non-injured control animals (n=3). Meanwhile, qPCR studies were conducted with non-injured control animals (n=41). All of the study protocols were approved by the College of Staten Island IACUC committee.
Following administration of a ketamine/xylazine cocktail (90/10 mg/kg, i.p.) to achieve deep anesthesia, a laminectomy at thoracic T10 vertebra was performed to expose the T13 spinal segment. An infinite horizon (IH) spinal cord impactor (IH-0400, Precision Systems & Instrumentation, VA, USA) was used to induce a contusive SCI force. The impact force level was 60 kdyn and was selected based on data collected from exploratory experiments that were conducted with this impactor. In these preliminary studies, contusion injuries were induced with increasing impact forces in order to optimize the SCI contusion force needed to produce spastic mice. Mice impacted at 60 kdyn produced ideal spastic behavior at approximately 2-3 weeks post-injury. Impact was applied by using a standard mouse tip (diameter=1.3 mm). Following the contusion procedure, overlying muscles and skin were sutured and the surgical site was covered with a layer of gentamicin sulfate ointment to prevent infection. Each mouse subsequently received a number and then was placed on a warming pad (30° C.) for recovery.
A computer-controlled stretch device was assembled in our laboratory from a stepper motor (DMX-UMD-23m, ARCUS Technology Inc., CA. USA), a foot presser mounted on a force-displacement transducer (FT03, GRASS Technologies/NATUS, CA, USA) connected to a bridge amplifier (ADInstruments, Colorado Springs, CO, USA), and a mouse holder (FIG. 1). The transducer was permanently fixed to a linear rail-guided carriage (SGB15NUU, ZNT Automatic Technology Co, Zhejiang, China). The rotational movement of the stepper motor is converted into linear displacement at the carriage by using a set of jointed flat-aluminum rods that are connected with swivel hub bearings. Two computer software programs were utilized to control the stepper motor and to perform the online (during) stretch and electromyogram (EMG) recordings. First, a stepper motor control software (DMX-UMD GUI, ARCUS Technology Inc.) was re-written to permit the execution of three consecutively timed stretches, with each stretch separated by two 10-s recovery intervals. The stepper motor was also programmed to provide three different stretch speeds: 18/s, 180/s, and 1800/s, which correspond to 3 RPM, 30 RPM, and 300 RPM, respectively. The second software package used was LabChart-7 bundled with PowerLab data acquisition system software (ADInstruments) which was used to gather and analyze data.
A mouse restraining system was fabricated in our laboratory (FIG. 1) from three components. 1) A clear Plexiglas acrylic tube served as the mouse holding chamber. 2) An internally adjustable support system made of a clear acrylic concave stabilization plate. The location of the plate was able to be adjusted linearly along the length of the chamber via a handle that protruded through a cutout that ran the entire length of the tube. […]

Test [2] has as its system non-injured control animals. As to the kind of experiment: Stretch response in non-injured control animals after bumetanide injection. It counts as in vivo, CD-1 mice.
From the text: as §1, with “committee. […]” for “committee.”

Setting [3] is: 60 mg/kg, 5, 20, 30 and 45 min after injection vs baseline, p<0.001.

In the case of `CCCCNc1cc(C(=O)O)cc(S(N)(=O)=O)c1Oc1ccccc1` [bumetanide], the reductions in spasticity result in test [1] (30 mg/kg, one hour after administration, n=5, data not shown) is on record as “moderate reductions in spasticity”. In test [1] (setting [3]), the “corresponding EMG” value was “significant reduction” and the “reduction in peak resistance (reflexive muscle resistance)” value stood at 34%. The “background activity and resting muscle tone on slow stretches” value in test [1] (60 mg/kg, thirty min after injection) was “reduce background activity and resting muscle tone”. Moreover, the “spasticity following bumetanide treatment” value in test [1] (SCI mice, dose not given) is reported as “spasticity was reduced”. Further, the “muscle resistance and concurrent EMG at low speed and high speed (FIG. 9)” value in test [1] (following bumetanide injection, n=9 mice, vs baseline 2) is “decreases in muscle resistance and concurrent EMG”. Further, in test [2] (60 mg/kg, non-injured control animals), the “animals exhibiting a reduced reflexive stretch response” value came out at 21%. The “reduction in reflexive muscle resistance in controls” value in test [2] (after bumetanide injection, controls) is recorded as 21 °/0.
